Source: patent publication US20210283098A1, “Methods and Compositions for Treating Pain and Itch” (YISSUM RESEARCH DEVELOPMENT COMPANY OF THE HEBREW …, priority 2018, published 2021)
Like-named read-outs stand apart in the source and are kept apart here.

Key:
male Sprague-Dawley rats [1] = assay: Motor function score after peri-sciatic injection; type: in vivo, rat
male Sprague-Dawley rats [2] = assay: Thermal paw withdrawal latency from radiant heat source (Hargreaves) after peri-sciatic injection; type: in vivo, rat
cannabinoid CB2 receptor = cannabinoid CB2 receptor (Homo sapiens, UniProt P34972); conditions: cited from earlier work
TRPV1-HEK-293 cells [3] = conditions: 1% QX-314, 24 hour treatment; Stueber et al., Anesthesiology, 2016; cited from earlier work
TRPV1 channels = biological target: T1, TRPV1 channels (Homo sapiens, UniProt Q8NER1); assay: Calcium imaging (Fura-2) in HEK-293 cells stably expressing hTRPV1; type: cell-based; conditions: hTRPV1-HEK-293; chloroprocaine 1-5 mM bath applied 120 s; capsaicin short (5 s) focal application
T1 construct: expressed in transfected cells
Protocol: To that end, we performed calcium imaging experiments on HEK-293 cells which stably express TRPV1 and TRPA1 using HEK-293t cells for control. The cells were cultured in standard DMEM with 10% FBS, 100 U/ml penicillin and 100 μg/ml streptomycin and 2 mM Glutamax. 5 μg/ml blasticidin and 0.35% Zeocin were added for stable expression of hTRPV1 and for induction tetracycline 0.1 μg/ml was added to the medium 16 to 24 hours prior to experiments. Cells were cultivated at 37° C. and 5% CO2 and prepared on Poly-D-Lysin coated coverslips and were loaded with Fura-2 AM (stock in DMSO), for 45-60 minutes in a bath solution composed of (in mM): 145 NaCl, 5 KCl, 2 CaCl2, 1 MgCl2, 10 Glucose, 10 HEPES. They were then rinsed for 45-60 minutes for de-esterification of intracellular AM esters. Intracellular [Ca^2+]i was measured fluoroimetrically as ratiometric excitation at 340 nm and 380 nm (ΔF340/380, emission collected at 510 nm) using an inverted microscope (Nikon Eclipse Ti), equipped with an Epi-Fl attachment; perfect focus system (Nikon, Japan) and Exi Aqua monochromator (QImaging). […] A PV-820 Pneumatic PicoPump (WPI) was used for short (5 s) focal applications of capsaicin. Immediately after the puff application, capsaicin was washed out by perfusing with external solution.

TRPV1-HEK-293 cells [4] = assay: Cell viability by double staining with PI and FITC annexin V; type: cell-based
Protocol: Similar treatment with 1 μg/μl capsaicin lead, after 24 hours, to death of more than 50% of cells. […] Representative of 5 experiments. FIG. 4B is a bar graph summarizing the number of dead TRPV1-HEK-293 cells without any treatment (white), treated with 2% chloroprocaine (grey) or 1 μg/μl capsaicin (black) at the indicated time points.

[5] = cited from earlier work

T1 sequence (Q8NER1 whole entry): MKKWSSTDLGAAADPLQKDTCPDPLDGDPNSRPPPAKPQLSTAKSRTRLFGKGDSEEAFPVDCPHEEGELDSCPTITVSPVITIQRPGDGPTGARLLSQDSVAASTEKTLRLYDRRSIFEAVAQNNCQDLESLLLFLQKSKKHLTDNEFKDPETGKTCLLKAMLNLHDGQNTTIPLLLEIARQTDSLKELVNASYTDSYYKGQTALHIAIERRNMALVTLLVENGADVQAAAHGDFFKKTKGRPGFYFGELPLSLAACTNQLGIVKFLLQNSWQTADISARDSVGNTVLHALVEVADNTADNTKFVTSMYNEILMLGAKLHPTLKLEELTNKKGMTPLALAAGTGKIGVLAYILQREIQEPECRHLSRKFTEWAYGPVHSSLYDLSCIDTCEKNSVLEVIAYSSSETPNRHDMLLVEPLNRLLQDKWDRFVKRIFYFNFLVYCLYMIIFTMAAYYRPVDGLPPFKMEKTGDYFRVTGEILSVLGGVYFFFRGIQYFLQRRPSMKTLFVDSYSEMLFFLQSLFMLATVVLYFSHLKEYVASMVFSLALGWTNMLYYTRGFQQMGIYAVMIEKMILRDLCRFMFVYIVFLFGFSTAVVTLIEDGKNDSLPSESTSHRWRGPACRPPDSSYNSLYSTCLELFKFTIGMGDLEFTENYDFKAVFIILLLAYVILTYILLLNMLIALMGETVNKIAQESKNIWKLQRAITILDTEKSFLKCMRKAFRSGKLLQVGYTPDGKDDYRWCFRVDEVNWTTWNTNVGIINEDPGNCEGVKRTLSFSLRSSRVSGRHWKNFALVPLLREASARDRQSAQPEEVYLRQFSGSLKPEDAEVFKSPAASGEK
Chain of cannabinoid CB2 receptor (P34972 whole entry): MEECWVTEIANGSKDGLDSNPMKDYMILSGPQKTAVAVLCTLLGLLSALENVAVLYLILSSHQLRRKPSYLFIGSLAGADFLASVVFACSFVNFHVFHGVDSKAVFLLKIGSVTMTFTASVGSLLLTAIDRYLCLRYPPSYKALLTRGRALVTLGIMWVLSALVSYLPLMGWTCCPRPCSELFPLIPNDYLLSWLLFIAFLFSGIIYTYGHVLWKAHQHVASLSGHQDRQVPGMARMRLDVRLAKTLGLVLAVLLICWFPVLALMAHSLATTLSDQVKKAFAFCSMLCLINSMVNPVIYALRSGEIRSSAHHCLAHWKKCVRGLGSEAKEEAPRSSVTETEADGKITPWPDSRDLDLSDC

C=C(C)[C@@H]1CCC(C)=C[C@H]1c1c(O)cc(CCCCC)cc1O [CBD, 2-[(1R,6R)-6-isopropenyl-3-methylcyclohex-2-en-1-yl]-5-pentylbenzene-1,3-diol]
effect on response to noxious stimuli and motor abilities (male Sprague-Dawley rats [1]; Example 6, 1% CBD alone): did not affect either response to noxious stimuli or motor abilities at all
effect on pain behavior (male Sprague-Dawley rats [2]; Example 6, saline with 1% CBD): did not affect pain behavior
affinity for CB2 receptor (cannabinoid CB2 receptor): very low affinity

CC[N+](CC)(CC)CC(=O)Nc1c(C)cccc1C [QX-314]
cell death (TRPV1-HEK-293 cells [3]): 55%

COc1cc(CNC(=O)CCCC/C=C/C(C)C)ccc1O [capsaicin]
change in intracellular calcium (Fura-2 fluorescence) (TRPV1 channels): substantial increase in FURA-2 fluorescence
death of cells (TRPV1-HEK-293 cells [4]; 1 μg/μl capsaicin, 24 hours): more than 50%

CCN(CC)CCOC(=O)c1ccc(N)cc1Cl [chloroprocaine]
change in intracellular calcium (Fura-2 fluorescence) (TRPV1 channels): does not induce calcium influx
duration of motor block (male Sprague-Dawley rats [1]; Example 2, peri-sciatic injection, 0.5% chloroprocaine alone): 30 min
duration of motor block (male Sprague-Dawley rats [1]; Example 6, peri-sciatic, 0.5% chloroprocaine with 1% CBD or with vehicle for CBD): 30 min
differential block (male Sprague-Dawley rats [2]; 0.5% chloroprocaine alone, same motor and pain block): no differential block
effect on response to noxious heat (PWL normalized to baseline) (male Sprague-Dawley rats [2]; Example 2, peri-sciatic, 0.5% chloroprocaine, 1 μg/μl capsaicin, 52° C.): does not affect the response to noxious heat
duration of inhibition of response to noxious heat (male Sprague-Dawley rats [2]; Example 6, 0.5% chloroprocaine with vehicle for CBD): about 30 min
cell death (TRPV1-HEK-293 cells [4]; 2% chloroprocaine, 24 hours treatment): does not cause cell death

CCCCNc1ccc(C(=O)OCCN(C)C)cc1 [tetracaine]
pKa [5]: 8.2
